Assay [1] addresses T1, SOS1 catalytic domain (residues 564-1049) (Homo sapiens, UniProt Q07889).
T1 sequence (Q07889 564-1049): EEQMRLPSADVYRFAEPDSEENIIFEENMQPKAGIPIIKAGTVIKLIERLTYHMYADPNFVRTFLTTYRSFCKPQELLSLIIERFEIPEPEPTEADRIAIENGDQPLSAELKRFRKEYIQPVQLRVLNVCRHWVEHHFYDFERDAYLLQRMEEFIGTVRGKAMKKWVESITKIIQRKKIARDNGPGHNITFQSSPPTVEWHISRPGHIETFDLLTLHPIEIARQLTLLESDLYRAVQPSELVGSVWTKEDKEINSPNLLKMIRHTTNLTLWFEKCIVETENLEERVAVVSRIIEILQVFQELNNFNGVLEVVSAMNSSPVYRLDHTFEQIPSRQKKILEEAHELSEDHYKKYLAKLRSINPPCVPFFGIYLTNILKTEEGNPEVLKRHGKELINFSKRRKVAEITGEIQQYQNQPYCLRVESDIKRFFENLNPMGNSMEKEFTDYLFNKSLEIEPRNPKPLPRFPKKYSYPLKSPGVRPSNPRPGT
Description: SOS1 SPR binding affinity assay (Biacore 8K). (In general: Surface plasmon resonance follows binding to a sensor surface in real time, without labels.)

Assay [2] addresses T2, SOS1 nucleotide exchange of wild-type KRAS (SOS1 catalytic domain residues 564-1049; KRAS residue 1-169) (Homo sapiens, UniProt Q07889).
T2 sequence (Q07889 564-1049): T1 sequence (Q07889 564-1049)
The assay can be described thus: Inhibition of SOS1 nucleotide exchange activity of KRAS (TR-FRET). It is filed as biochemical. Background: In TR-FRET formats the signal depends on donor and acceptor labels being close together.

In assay [3] the test system is SOS1 function in cells: cellular pERK in PC-9 cells (EGFR Ex19Del). The assay can be described thus: pERK potency assay in PC-9 cells (AlphaLISA SureFire Ultra p-ERK1/2). The conditions noted are these: Homo sapiens, PC-9, 1 h, 1 hour incubation. It is filed as cell-based. How it is done: The purpose of this assay is tomeasure the ability of test compounds to inhibit SOS1 function in cells. SOS1 activates RAS proteins by catalyzing the conversion of RAS-GDP to RAS-GTP in response to receptor tyrosine kinase activation. […] The procedure described below measures the level of cellular pERK in response to test compounds in PC-9 cells (EGFR Ex19Del).
PC-9 cells were grown and maintained using media and procedures recommended by the ATCC. On the day prior to compound addition, cells were plated in 384-well cell culture plates (40 μL/well) and grown overnight in a 37° C., 5% CO2 incubator. Test compounds were prepared in 10, 3-fold dilutions in DMSO, with a top concentration of 10 mM. On the day of the assay, 40 nL of test compound was added to each well of cell culture plate using an Echo550 liquid handler (LabCyte). Concentrations of test compound were tested in duplicate with highest test concentration being 10 μM. After compound addition, cells were incubated for 1 hour at 37° C., 5% CO2. Following incubation, culture medium was removed and cells were washed once with phosphate buffered saline.
Cellular pERK level was determined using the AlphaLISA SureFire Ultra p-ERK1/2 Assay Kit (PerkinElmer). Cells were lysed in 25 μL lysis buffer, with shaking at 600 RPM at room temperature for 15 minutes. Lysate (10 μL) was transferred to a 384-well Opti-plate (PerkinElmer) and 5 μL acceptor mix was added. The plate was centrifuged at 1000 RPM for 1 minute, and incubated in the dark for 2 hours. Following this incubation, 5 μL of donor mix was added, the plate was sealed and centrifuged at 1000 RPM for 1 minute, and the mixture was incubated for 2 hours at room temperature. Signal was read on an Envision plate reader (PerkinElmer) using standard AlphaLISA settings. Analysis of raw data was carried out in Excel (Microsoft) and Prism (GraphPad). Signal was plotted vs. the decadal logarithm of compound concentration, and IC50 was determined by fitting a 4-parameter sigmoidal concentration response model.
In general terms: Alpha assays give light when donor and acceptor beads are brought close together.

[4] abbreviates: avi-tagged SOS1 catalytic domain immobilized on streptavidin chip, equilibrium 1:1 binding fit, read-out: SOS1 SPR Equilibrium Kd.
The mark [5] stands for this setting: SOS1 nucleotide exchange of wild-type KRAS, three replicates, four-parameter logistic fit, read-out: TR-FRET IC50.

The record followed here is US20210139517A1, “BICYCLIC HETEROARYL COMPOUNDS AND USES THEREOF” (Revolution Medicines, Inc., priority 2019, published 2021).

SMILES strings stand for the structures. Read-outs that look alike come from different tables or passages of the source.

Usually Kd stands for the concentration at which binding is half-saturated. A word on the IC50: it is the midpoint of a concentration-inhibition curve. For `CC(=O)N1CCC(c2cc3c(N[C@H](C)c4cc(N)cc(C(F)(F)F)c4F)ncnc3n(C)c2=O)CC1` [Example 19, 6-(1-acetyl-4-piperidyl)-4-[[(1R)-1-[5-amino-2-fluoro-3-(trifluoromethyl)phenyl]ethyl]amino]-8-methyl-pyrido[2,3-d]pyrimidin-7-one], the Kd in assay [1] (setting [4]) stood at 32.4 nM. The IC50 came out at 12.3 nM in assay [2] (setting [5]) and 49.2 nM in assay [3].
For `Cc1nc(N[C@H](C)c2cccc(C(F)F)c2F)c2cc(C3CCN(C)CC3F)c(=O)n(C)c2n1` (stereo partly drawn) [Example 18, 4-[[(1R)-1-[3-(difluoromethyl)-2-fluoro-phenyl]ethyl]amino]-6-(3-fluoro-1-methyl-4-piperidyl)-2,8-dimethyl-pyrido[2,3-d]pyrimidin-7-one] the same measures were 16 nM, 5.79 nM and 190 nM.
The like results for `C[C@@H](Nc1ncnc2c1cc(N1CCOCC1)c(=O)n2C)c1cc(N)cc(C(F)(F)F)c1` [Example 12, 4-{[(1R)-1-[3-amino-5-(trifluoromethyl)phenyl]ethyl]amino}-8-methyl-6-(morpholin-4-yl)-7H,8H-pyrido[2,3-d]pyrimidin-7-one] were, in that order, 7.94 nM, 13.6 nM and 101 nM.
As to `CC(=O)N1CCC(c2cc3c(N[C@H](C)c4cc(C(F)(F)F)cc(N)c4F)ncnc3n(C)c2=O)CC1` [Example 15, 6-(1-acetyl-4-piperidyl)-4-[[(1R)-1-[3-amino-2-fluoro-5-(trifluoromethyl)phenyl]ethyl]amino]-8-methyl-pyrido[2,3-d]pyrimidin-7-one], in assay [1] (setting [4]), the Kd is 168 nM. Moreover, the IC50 came out at 90.4 nM in assay [2] (setting [5]) and 391 nM in assay [3].
As for `C[C@@H](Nc1ncnc2c1cc(N1CCOCC1)c(=O)n2C)c1cccc(C(F)(F)CO)c1` [Example 2, (R)-4-((1-(3-(1,1-difluoro-2-hydroxyethyl)phenyl)ethyl)amino)-8-methyl-6-morpholinopyrido[2,3-d]pyrimidin-7(8H)-one], in assay [1] (setting [4]), the Kd amounted to 7.36 nM. For the same molecule, in assay [2] (setting [5]), the IC50 turned out to be 12.9 nM.
The like results for `C[C@@H](Nc1ncnc2c1cc(C1(N)CCOCC1)c(=O)n2C)c1cccc(C(F)F)c1F` [Example 31, 6-(4-aminooxan-4-yl)-4-{[(1R)-1-[3-(difluoromethyl)-2-fluorophenyl]ethyl]amino}-8-methyl-7H,8H-pyrido-[2,3-d]pyrimidin-7-one] were, in that order, 42.8 nM and 31.5 nM.
As to `Cc1nc(N[C@H](C)c2cccc(C(F)F)c2F)c2cc(C(=O)N3CCOCC3)c(=O)n(C)c2n1` [Example 26, 4-{[(1R)-1-[3-(difluoromethyl)-2-fluorophenyl]ethyl]amino}-2,8-dimethyl-6-(morpholine-4-carbonyl)-7H,8H-pyrido[2,3-d]pyrimidin-7-one], the Kd in assay [1] (setting [4]) was found to be 115 nM. In assay [2] (setting [5]), the IC50 amounted to 70.2 nM.
Turning to `C[C@@H](Nc1ncnc2c1cc(C1CC[S+]([O-])CC1)c(=O)n2C)c1cccc(C(F)F)c1F` (stereo partly drawn) [Example 25, (R)-4-((1-(3-(difluoromethyl)-2-fluorophenyl)ethyl)amino)-8-methyl-6-(1-oxidotetrahydro-2H-thiopyran-4-yl)pyrido[2,3-d]pyrimidin-7(8H)-one], in assay [1] (setting [4]), the Kd was determined as 19.4 nM. In addition, in assay [2] (setting [5]), the IC50 came out at 15.9 nM.
As for `C[C@@H](Nc1ncnc2c1cc(N1CCOCC1)c(=O)n2C)c1cccc(C(F)(F)F)c1` [Example 13, 8-methyl-6-(morpholin-4-yl)-4-{[(1R)-1-[3-(trifluoromethyl)phenyl]-ethyl]amino}-7H,8H-pyrido[2,3-d]pyrimidin-7-one], the Kd in assay [1] (setting [4]) was found to be 28.3 nM. Moreover, the IC50 in assay [2] (setting [5]) was 29.4 nM; in assay [3], 321 nM.
In the case of `C[C@@H](Nc1ncnc2c1cc(C1(O)CCS(=O)(=O)CC1)c(=O)n2C)c1cccc(C(F)F)c1F` [Example 28, 4-(4-{[(1R)-1-[3-(difluoromethyl)-2-fluorophenyl]-ethyl]amino}-8-methyl-7-oxo-7H,8H-pyrido[2,3-d]pyrimidin-6-yl)-4-hydroxy-1λ^6-thiane-1,1-dione], the Kd in assay [1] (setting [4]) amounted to 45.1 nM. Moreover, the IC50 in assay [2] (setting [5]) came out at 20.6 nM.
Regarding `Cc1nc(N[C@H](C)c2cccc(C(F)(F)CO)c2)c2cc(C3=CCNCC3)c(=O)n(C)c2n1` [Example 4, (R)-4-((1-(3-(1,1-difluoro-2-hydroxyethyl)phenyl)ethyl)amino)-2,8-dimethyl-6-(1,2,3,6-tetrahydropyridin-4-yl)pyrido[2,3-d]pyrimidin-7(8H)-one], the affinity in assay [1], expressed as Kd, was 7.97 nM. Moreover, the IC50 in assay [2] amounted to 10.8 nM.
For the molecule `C[C@@H](Nc1ncnc2c1cc(-c1ccnnc1)c(=O)n2C)c1cccc(C(F)F)c1F` [Example 21, (R)-4-((1-(3-(difluoromethyl)-2-fluorophenyl)ethyl)amino)-8-methyl-6-(pyridazin-4-yl)pyrido[2,3-d]pyrimidin-7(8H)-one], the Kd in assay [1] (setting [4]) came out at 32.7 nM. Further, the results for the IC50 in assay [2] (setting [5]) and in assay [3] were 18 nM and 136 nM, respectively.
Regarding `C[C@@H](Nc1ncnc2c1cc(C1CCNCC1O)c(=O)n2C)c1cccc(C(F)F)c1F` (stereo partly drawn) [Example 34, 4-(((R)-1-(3-(difluoromethyl)-2-fluorophenyl)ethyl)amino)-6-(3-hydroxypiperidin-4-yl)-8-methylpyrido[2,3-d]pyrimidin-7(8H)-one], the Kd in assay [1] (setting [4]) came out at 72.9 nM. In addition, the IC50 in assay [2] (setting [5]) is 62.7 nM.
